Like-named read-outs stand apart in the source and are kept apart here.
Experiments:
Format in all cases: cell-based
Colletotrichum acutatum = assay: In vitro fungitoxic activity, 48-well PDA outgrowth, curative (Example 2); settings: 168 h, fungicide alone, 7 days at room temperature
Description: (§1) All the experiments were done in the same way. In 48-well plates, each well was filled with a volume of 180 μL of the ITC, the fungicide or a combination of both at various concentrations and filled with 180 μL of Potato Dextrose Agar (PDA). Two or three wells were used per concentration for better accuracy. After solidification of the well a plug of 2×2 mm of grown fungi was placed in each well, and the 48-well plate was sealed with parafilm. After 7 days of incubation at room temperature, the fungal outgrowth was measured and the EC50 was calculated with a 4-parameter logistic regression in XLSTAT.
(§2) Afterward, a concentration of the fungicides at which the fungi is not growing (i.e. […] the EC50) was determined. Applicants repeated the 48-well experiment by filling the well with a mixture of the ITC and the fungicides; the fungicide concentration was kept constant at the determined concentration mentioned above and the ITC concentration was varied. As before, the fungal outgrowth was measured after 7 days of incubation. To calculate the synergistic properties of the combo ITC+fungicides, the Combination Index (CI) described by Chou (2006) was calculated using the CompuSyn software.

Rhizoctonia solani [1] = assay: In vitro fungitoxic activity, 48-well PDA outgrowth, preventive (spore solution); settings: 168 h, fungicide alone, 7 days at 20° C.
Description: (§3) All the experiments were done in the same way, with small differences between curative and preventive cases. In 48-well plates, each well was filled with a volume of 180 μL of the ITC, the fungicide or a combination of both at various concentrations and filled with 180 μL of Potato Dextrose Agar (PDA). Three wells were used per concentration for better accuracy. After solidification of the well, either a plug of 2×2 mm of grown fungi (curative case) or 20 μL of a spore solution (˜1E5 spores/mL, preventive case) was placed in each well, and the 48-well plate was sealed with parafilm. After 7 days of incubation at 20° C. in a controlled growth chamber, the fungal outgrowth was measured and the EC50 was calculated with a 4-parameter logistic regression in XLSTAT.
as §2, with “ITO” for “ITC”, “ITO+fungicides,” for “ITC+fungicides,”

Rhizoctonia solani [2] = assay: In vitro fungitoxic activity, 48-well PDA outgrowth, curative; settings: 168 h, fungicide alone, 7 days at 20° C.
Description: as §3
as §2, with “ITO” for “ITC”, “ITO+fungicides,” for “ITC+fungicides,”

[3] = tested on: Lasiodiplodia pseudotheobromae; assay: In vitro fungitoxic activity, 48-well PDA outgrowth, curative (Example 2); settings: 168 h, read-out: EC50 fungicide
Description: as §1, §2

Alternaria radicina = assay: In vitro fungitoxic activity, 48-well PDA outgrowth, curative; settings: 168 h, read-out: EC50 fungicide
Description: as §3
as §2, with “ITO” for “ITC”, “ITO+fungicides,” for “ITC+fungicides,”

Penicillium commune = assay: In vitro fungitoxic activity, 48-well PDA outgrowth, curative (Example 2); settings: 168 h, fungicide alone, 7 days at room temperature
Description: as §1, §2

Fusarium verticilloides = assay: as above; settings: 168 h, fungicide alone, 7 days at room temperature
Description: as §1, §2

Geotrichum candidum [4] = assay: In vitro fungitoxic activity, 48-well PDA outgrowth, preventive (spore solution); settings: 168 h, fungicide alone, 7 days at 20° C.
Description: as §3
as §2, with “ITO” for “ITC”, “ITO+fungicides,” for “ITC+fungicides,”

Penicillium digitatum = assay: In vitro fungitoxic activity, 48-well PDA outgrowth, curative; settings: 168 h, read-out: EC50 fungicide
Description: as §3
as §2, with “ITO” for “ITC”, “ITO+fungicides,” for “ITC+fungicides,”

Geotrichum candidum [5] = assay: as above; settings: 168 h, read-out: EC50 fungicide
Description: as §3
as §2, with “ITO” for “ITC”, “ITO+fungicides,” for “ITC+fungicides,”

[6] = tested on: Plectosphaerella cucumerina; assay: In vitro fungitoxic activity, 48-well PDA outgrowth, curative (Example 2); settings: 168 h, read-out: EC50 fungicide
Description: as §1, §2

Botrytis cinerea = assay: In vitro fungitoxic activity, 48-well PDA outgrowth, curative; settings: 168 h, read-out: EC50 fungicide
Description: as §3
as §2, with “ITO” for “ITC”, “ITO+fungicides,” for “ITC+fungicides,”

[7] = fungicide alone, curative, 7 days at room temperature
[8] = fungicide alone, curative, 7 days at 20° C.

N#Cc1c(Cl)c(Cl)c(Cl)c(C#N)c1Cl [Chlorothalonil] showed an EC50 (Colletotrichum acutatum) of 52 µM, an EC50 (Rhizoctonia solani [1]) of 2 µM and an EC50 (Rhizoctonia solani [2]) of 29 µM.

Work on Cc1cc(C2CC2)nc(Nc2ccccc2)n1 [Cyprodinil] yielded an EC50 [3, 7] of 9 µM.

With Cc1cc(C)nc(Nc2ccccc2)n1 [Pyrimethanil] the EC50 (Rhizoctonia solani [2]) was 28 µM and the EC50 (Alternaria radicina; [8]) was 3 µM.

Work on CC(C)(C)C(O)(CCc1ccc(Cl)cc1)Cn1cncn1 (stereo not shown) [Tebuconazole] yielded an EC50 (Penicillium commune) of 179 µM, an EC50 [3, 7] of 300 µM and an EC50 (Fusarium verticilloides) of 6 µM. For the same molecule, the EC50 (Geotrichum candidum [4]) was 25 µM, the EC50 (Rhizoctonia solani [2]) was 18 µM and the EC50 (Penicillium digitatum; [8]) was 1 µM. The EC50 (Geotrichum candidum [5]; [8]) was 27 µM and the EC50 (Alternaria radicina; [8]) was 30 µM.

O=C1C2CC=CCC2C(=O)N1SC(Cl)(Cl)Cl (stereo not shown) [Captan] gave an EC50 (Fusarium verticilloides) of 424 µM.

N#Cc1c[nH]cc1-c1cccc2c1OC(F)(F)O2 [Fludioxonil] was tested, and the EC50 [3] was 1 µM.

Molecule CCCCCCCCCCCCNC(=N)N [Dodine] has an EC50 [6] of 93 µM, an EC50 [3] of 476 µM and an EC50 (Penicillium digitatum) of 92 µM. For the same molecule, the EC50 (Geotrichum candidum [5]) was 156 µM, the EC50 (Alternaria radicina) was 110 µM and the EC50 (Botrytis cinerea) was 189 µM.

Reference: patent publication US20240349727A1, “SYNERGY BETWEEN MIXTURES OF ISOTHIOCYANATES AND COMMERCIAL FUNGICIDES” (priority 2021, published 2024)
